18 compounds from patent publication US10550080B2 (BRISTOL-MYERS SQUIBB COMPANY, priority 2016, dated 2020) can be followed below.

One series deals with NaV1.5 (Homo sapiens (Human), UniProt Q14524). In words: Automated electrophysiology, IonWorks Barracuda population patch clamp, NaV1.5 current (inactivated-state protocol). The conditions noted are these: HEK 293 cells expressing NaV1.5; read-out: NaV1.5 Barra IC50. The class given is cell-based. Here is the method:
(§1) Automated Electrophysiology: Ion Works Barracuda population patch clamp (PPC). PPC measurements were performed using an IonWorks Barracuda instrument (Molecular Devices Corporation, Union City, Calif.) using either PatchPlate™ PPC substrates (Molecular Devices Corporation) with 64 apertures per well. The ability to average currents from 64 recordings from each well greatly improves data consistency and recording success rates in the measurement of NaV1.7 mediated ionic currents. Calculated leak current was digitally subtracted from the total cell NaV1.7 current for each sample point acquired.
(§2) NaV1.7 currents were elicited by a voltage clamp protocol designed to bias the NaV1.7 channels to their inactivated state as follows. From holding potential of −60 mV cells were briefly hyperpolarized to −100 mV for 1.25 sec, then stepped to −20 mV for 20 sec to inactivate the channels. This was followed by a relatively brief hyperpolarization to −100 mv for 300 ms, then a 20 msec test pulse to −20 mV to elicit the NaV1.7 current used to measure the pharmacology of all test compounds. Compounds were incubated for 600 sec between the pre- and post-compound reads. The external recording solution used was (in mM) 137 NaCl, 4 KCl, 1 MgCl2, 1.8 CaCl2, 10 Hepes, 10 glucose, pH to 7.4 with NaOH, and the internal solution used was (in mM) 100 K-gluconate, 40 KCl, 3.2 zMgCl2, 5 EGTA, 10 HEPES pH to 7.2 with KOH. The same solutions were used to record NaV1.5 currents, with the following voltage clamp protocol. NaV1.5 currents were elicited by a voltage clamp protocol designed to bias the NaV1.5 channels to their inactivated state as follows. From holding potential of −40 mV cells were briefly hyperpolarized to −100 mV for 300 ms, then stepped to −10 mV for 20 sec to inactivate the channels. This was followed by a relatively brief hyperpolarization to −100 mv for 30 ms, then a 20 msec test pulse to −10 mV to elicit the NaV1.5 current used to measure the pharmacology of all test compounds.
(§3) HEK 293 cells expressing NaV1.7 and NaV1.5 channels, were used (Essen Biosciences, Ann Arbor, Mich.). Cells were cultured in T-175 flasks and passaged every 2 to 3 days at 1:3 to 1:6 seeding density dilutions. Cells were grown to 70% to 90% confluence in a flask and removed from the incubator (37° C., 5% CO2) 1 to 3 days after plating. Growth medium was aspirated from the culture flasks. Cells were gently rinsed with 10 ml of PBS (Catalog number: 14190144, Gibco) to remove residual media. Next a total of 2 mL TrypLE (Gibco) solution was added, and the flasks containing cells were sat for 3 min at RT, after which, the cells became visibly rounded and were easily dislodged from the bottom of the flask with a few brief taps on a solid surface. A total of 8 mL of media was added to the flask to inactivate the TrypLE, and the mixture was centrifuged at 910 rpm for 4 min. The cell supernatant was decanted, and the cell pellets were resuspended in 5-6 mL of external solution followed by gentle triturations using a 10 ml pipette, and transferred to a 15 ml conical tube and immediately brought to the IW Barracuda instrument.
(§4) Peak membrane currents were analyzed with IW Barracuda software and exported to Excel for further analysis. Concentration response curve fitting was performed with BMS in-house software. IC50 values were obtained by fits of the Hill equation to the average percent inhibition data plotted versus compound concentration. […] Results are reported in Table 1 (NaV1.7 Barra IC50 in nM and NaV1.5 Barra IC50 in nM).

Another series has as its target hNaV1.7 (Homo sapiens (Human), UniProt Q15858). In words: Ligand Binding Assay (LBA), radioligand displacement on hNaV1.7 HEK293 cell membranes. The settings on record: 0.5 nM [3H] radioligand, 24 hours at room temperature; read-out: NaV1.7 LBA IC50. As to the method:
Ligand Binding Assay (LBA): hNaV1.7 binding affinities were determined with a filtration binding assay using purified membranes from HEK293 cells stably expressing hNaV1.7. HEK293 cells from a 10-stack cell culture flask (approximately 10^10 cells) were dissociated, frozen, and stored at −80° C. To prepare membranes, the frozen cell pellet was thawed and suspended in 6 ml hypotonic lysis buffer (50 mM HEPES, 0.1% mammalian protease inhibitor cocktail). 1 ml of resuspended cells was added to an additional 6 ml of lysis buffer and homogenized with 30 strokes of a tight pestle in a glass homogenizer. Homogenate was centrifuged at 1000×g for 10 minutes at 4° C. and the resulting supernatant was further centrifuged at 38,500×g for 60 minutes at 4° C. The resulting pellet was resuspended in binding buffer (50 mM HEPES, 130 mM NaCl, 5.4 mM KCl, 0.8 mM MgCl2, 5 mM glucose, pH 7.4) and needle homogenized with a 25 gauge needle. Protein concentration was determined with a BCA protein assay. Purified membranes were aliquoted, flash frozen in an ethyl alcohol dry ice bath, and stored at −80° C. To measure displacement of a radiolabeled ligand, 50 μg of purified hNaV1.7 HEK cell membranes were incubated with test compounds (eight concentrations, in duplicate) and 0.5 nM [3H] labeled radioligand in a 96 well plate for 24 hours at room temperature on a shaker. The total binding reaction volume was 250 μl, consisting of 200 μl purified hNaV1.7 HEK cell membranes, 25 μl test compound, and 25 μl radioligand. Non-specific binding was defined by 20 μM of a reference hNaV1.7 inhibitor. Binding reactions were terminated by filtration through GF/B filters presoaked in 0.5% polyethyleneamine. Filters were washed 5 times with 2 ml each of 4′C wash buffer (50 mM Tris-HCl, pH 7.4 at 4° C.). Bound radioactivity captured on the filters was counted on a liquid scintillation counter. Specific binding, expressed as % inhibition, was fit with Graphpad Prism software to determine binding IC50 values. Results are reported in Table 1 (NaV1.7 LBA IC50 in nM).

A further series concerns the target NaV1.7 (Homo sapiens (Human), UniProt Q15858). Kind of series: Automated electrophysiology, IonWorks Barracuda population patch clamp, NaV1.7 current (inactivated-state protocol). The class given is cell-based. The settings on record: HEK 293 cells expressing NaV1.7; 600 sec compound incubation; read-out: NaV1.7 Barra IC50. Here is the method: as §1, §2, §3, §4

NaV1.5, sequence (Q14524 whole entry): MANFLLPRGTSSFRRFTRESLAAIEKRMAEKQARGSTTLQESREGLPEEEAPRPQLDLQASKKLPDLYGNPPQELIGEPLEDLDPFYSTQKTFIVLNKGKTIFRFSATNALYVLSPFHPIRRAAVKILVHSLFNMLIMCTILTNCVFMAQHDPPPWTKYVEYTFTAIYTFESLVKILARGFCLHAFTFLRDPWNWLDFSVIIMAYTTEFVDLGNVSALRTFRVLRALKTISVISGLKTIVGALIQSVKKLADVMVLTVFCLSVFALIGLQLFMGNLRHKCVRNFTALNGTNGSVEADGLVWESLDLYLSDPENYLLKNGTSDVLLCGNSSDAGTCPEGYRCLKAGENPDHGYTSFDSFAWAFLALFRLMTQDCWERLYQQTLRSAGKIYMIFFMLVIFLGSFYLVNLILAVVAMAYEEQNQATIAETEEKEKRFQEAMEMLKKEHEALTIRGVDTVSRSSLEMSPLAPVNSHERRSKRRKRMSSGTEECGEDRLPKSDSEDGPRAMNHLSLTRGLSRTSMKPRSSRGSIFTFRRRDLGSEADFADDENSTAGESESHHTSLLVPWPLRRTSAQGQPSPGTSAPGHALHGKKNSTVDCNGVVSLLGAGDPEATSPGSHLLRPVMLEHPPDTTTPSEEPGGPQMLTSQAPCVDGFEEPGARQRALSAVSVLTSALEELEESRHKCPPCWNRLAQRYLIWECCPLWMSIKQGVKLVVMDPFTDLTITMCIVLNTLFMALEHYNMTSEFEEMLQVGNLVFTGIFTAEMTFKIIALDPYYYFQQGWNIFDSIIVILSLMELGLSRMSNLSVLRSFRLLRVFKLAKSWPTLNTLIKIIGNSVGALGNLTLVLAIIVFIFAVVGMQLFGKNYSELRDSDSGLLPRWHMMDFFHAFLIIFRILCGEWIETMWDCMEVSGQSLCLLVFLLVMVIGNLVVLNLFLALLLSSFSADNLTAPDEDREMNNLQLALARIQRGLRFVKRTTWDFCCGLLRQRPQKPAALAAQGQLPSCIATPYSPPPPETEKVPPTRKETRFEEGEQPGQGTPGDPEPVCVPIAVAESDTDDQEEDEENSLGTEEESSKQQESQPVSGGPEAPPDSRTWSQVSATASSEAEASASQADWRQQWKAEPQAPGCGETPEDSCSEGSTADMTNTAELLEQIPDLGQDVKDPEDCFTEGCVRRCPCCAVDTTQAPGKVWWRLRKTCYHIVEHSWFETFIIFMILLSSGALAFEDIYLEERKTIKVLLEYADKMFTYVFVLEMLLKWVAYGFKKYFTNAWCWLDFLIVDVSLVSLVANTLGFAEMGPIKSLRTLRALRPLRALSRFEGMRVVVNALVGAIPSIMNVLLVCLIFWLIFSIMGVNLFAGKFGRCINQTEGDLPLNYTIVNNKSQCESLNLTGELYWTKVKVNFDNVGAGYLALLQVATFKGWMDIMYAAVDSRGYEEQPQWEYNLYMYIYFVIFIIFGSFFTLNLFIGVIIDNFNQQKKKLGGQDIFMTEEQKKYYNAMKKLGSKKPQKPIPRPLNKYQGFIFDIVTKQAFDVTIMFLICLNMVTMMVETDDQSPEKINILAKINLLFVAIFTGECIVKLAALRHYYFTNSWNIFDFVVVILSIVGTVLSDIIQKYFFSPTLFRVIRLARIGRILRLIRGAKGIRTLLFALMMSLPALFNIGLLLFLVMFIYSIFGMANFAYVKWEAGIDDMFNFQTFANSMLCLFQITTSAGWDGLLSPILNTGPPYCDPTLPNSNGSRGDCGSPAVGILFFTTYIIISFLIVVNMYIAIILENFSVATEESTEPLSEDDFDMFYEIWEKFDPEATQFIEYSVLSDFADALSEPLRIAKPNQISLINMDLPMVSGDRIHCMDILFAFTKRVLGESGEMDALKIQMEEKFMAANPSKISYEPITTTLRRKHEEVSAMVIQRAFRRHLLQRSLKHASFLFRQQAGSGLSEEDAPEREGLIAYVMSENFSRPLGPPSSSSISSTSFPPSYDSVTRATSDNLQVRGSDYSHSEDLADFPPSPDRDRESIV
hNaV1.7, sequence (Q15858 whole entry): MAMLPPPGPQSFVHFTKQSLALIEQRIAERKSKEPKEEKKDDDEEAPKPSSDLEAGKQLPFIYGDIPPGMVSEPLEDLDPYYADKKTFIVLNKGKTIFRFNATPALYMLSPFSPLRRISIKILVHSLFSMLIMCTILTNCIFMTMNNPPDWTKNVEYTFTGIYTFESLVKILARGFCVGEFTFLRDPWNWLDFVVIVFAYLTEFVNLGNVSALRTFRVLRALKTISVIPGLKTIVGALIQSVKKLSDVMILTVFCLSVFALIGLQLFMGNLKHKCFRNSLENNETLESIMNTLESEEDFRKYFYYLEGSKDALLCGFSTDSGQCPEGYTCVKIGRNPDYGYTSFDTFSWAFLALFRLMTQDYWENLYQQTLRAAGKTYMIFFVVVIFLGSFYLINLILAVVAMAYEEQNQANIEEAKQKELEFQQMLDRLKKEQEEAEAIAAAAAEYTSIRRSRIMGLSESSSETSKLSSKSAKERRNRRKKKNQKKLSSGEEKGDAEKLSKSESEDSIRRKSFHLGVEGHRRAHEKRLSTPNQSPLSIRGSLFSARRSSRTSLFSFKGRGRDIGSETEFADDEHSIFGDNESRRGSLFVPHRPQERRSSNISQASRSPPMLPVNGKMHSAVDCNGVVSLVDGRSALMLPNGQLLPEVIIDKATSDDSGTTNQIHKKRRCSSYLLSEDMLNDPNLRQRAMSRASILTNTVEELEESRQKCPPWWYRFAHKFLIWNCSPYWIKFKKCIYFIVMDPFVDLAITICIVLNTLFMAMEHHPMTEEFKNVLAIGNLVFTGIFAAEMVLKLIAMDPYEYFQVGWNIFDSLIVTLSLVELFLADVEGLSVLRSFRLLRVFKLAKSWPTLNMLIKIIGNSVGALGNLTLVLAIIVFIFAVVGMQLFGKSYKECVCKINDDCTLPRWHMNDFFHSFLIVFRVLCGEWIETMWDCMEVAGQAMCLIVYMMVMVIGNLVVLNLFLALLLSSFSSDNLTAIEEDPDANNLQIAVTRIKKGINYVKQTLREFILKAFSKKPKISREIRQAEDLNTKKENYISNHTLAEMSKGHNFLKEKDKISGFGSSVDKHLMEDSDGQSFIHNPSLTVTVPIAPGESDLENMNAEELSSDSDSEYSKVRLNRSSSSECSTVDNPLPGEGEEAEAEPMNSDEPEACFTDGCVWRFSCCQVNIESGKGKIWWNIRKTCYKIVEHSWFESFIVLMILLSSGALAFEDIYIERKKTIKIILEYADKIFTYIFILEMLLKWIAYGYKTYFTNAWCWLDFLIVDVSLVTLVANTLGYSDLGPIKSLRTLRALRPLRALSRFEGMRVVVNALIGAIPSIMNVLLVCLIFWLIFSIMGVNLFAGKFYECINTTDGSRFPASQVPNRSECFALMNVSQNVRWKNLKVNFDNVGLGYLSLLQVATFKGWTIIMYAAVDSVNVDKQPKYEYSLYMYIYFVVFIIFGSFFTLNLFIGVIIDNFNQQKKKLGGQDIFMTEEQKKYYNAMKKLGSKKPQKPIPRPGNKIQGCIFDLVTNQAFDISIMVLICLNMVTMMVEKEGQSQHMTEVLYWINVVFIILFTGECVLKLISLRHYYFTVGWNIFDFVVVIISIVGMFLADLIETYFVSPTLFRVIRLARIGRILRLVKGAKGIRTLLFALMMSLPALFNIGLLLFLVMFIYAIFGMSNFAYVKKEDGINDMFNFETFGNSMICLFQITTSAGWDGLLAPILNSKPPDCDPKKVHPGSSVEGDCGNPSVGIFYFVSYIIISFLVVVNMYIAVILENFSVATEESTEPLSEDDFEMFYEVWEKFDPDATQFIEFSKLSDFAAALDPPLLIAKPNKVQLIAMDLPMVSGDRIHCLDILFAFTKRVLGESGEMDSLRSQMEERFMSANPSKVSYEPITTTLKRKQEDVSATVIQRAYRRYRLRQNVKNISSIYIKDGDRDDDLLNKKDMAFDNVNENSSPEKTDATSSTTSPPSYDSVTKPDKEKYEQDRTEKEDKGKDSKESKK
NaV1.7, sequence (Q15858 whole entry): as above

For the compound `CC(C)COc1ncc(-c2cn(C)c3cc(C(=O)NS(C)(=O)=O)c(F)cc23)cc1Cl` [Example 42, 3-(5-Chloro-6-isobutoxypyridin-3-yl)-5-fluoro-1-methyl-N-(methylsulfonyl)-1H-indole-6-carboxamide], the values for the IC50 on NaV1.5, on hNaV1.7 and at NaV1.7 were 7180 nM, 11 nM and 524 nM, respectively.
Regarding `COc1ncccc1-c1cn(C)c2cc(C(=O)NS(C)(=O)=O)ccc12` [Example 6, 3-(2-Methoxypyridin-3-yl)-1-methyl-N-(methylsulfonyl)-1H-indole-6-carboxamide], the IC50 at NaV1.5, at hNaV1.7 and at NaV1.7 was more than 30000 nM in each case.
With `CCS(=O)(=O)NC(=O)c1ccc2c(-c3cnc(OCC(C)C)c(Cl)c3)cn(C)c2c1` [Example 36, 3-(5-Chloro-6-isobutoxypyridin-3-yl)-N-(ethylsulfonyl)-1-methyl-1H-indole-6-carboxamide], the IC50 is 5670 nM at NaV1.5, 38 nM at hNaV1.7 and 154 nM on NaV1.7.
With `Cn1cc(-c2ccc(C(F)(F)F)cc2)c2cc(F)c(C(=O)NS(C)(=O)=O)cc21` [Example 46, 5-Fluoro-1-methyl-N-(methylsulfonyl)-3-(4-(trifluoromethyl)phenyl)-1H-indole-6-carboxamide], the IC50 at NaV1.5 is more than 30000 nM; at hNaV1.7, 84 nM; on NaV1.7 it was 49 nM.
For the compound `Cn1cc(-c2cccc(C(F)(F)F)c2)c2ccc(C(=O)NS(C)(=O)=O)cc21` [Example 13, 1-Methyl-N-(methylsulfonyl)-3-(3-(trifluoromethyl)phenyl)-1H-indole-6-carboxamide], the IC50 on NaV1.5 is more than 30000 nM; at hNaV1.7, 290 nM; at NaV1.7, 1420 nM.
Regarding `CC(C)Cc1ccc(-c2cn(C)c3cc(C(=O)NS(C)(=O)=O)ccc23)cc1` [Example 12, 3-(4-Isobutylphenyl)-1-methyl-N-(methylsulfonyl)-1H-indole-6-carboxamide], the values for the IC50 at NaV1.5, at hNaV1.7 and at NaV1.7 were more than 30000 nM, 317 nM and 363 nM, respectively.
For the compound `Cc1ccc(-c2cn(C)c3cc(C(=O)NS(C)(=O)=O)ccc23)cc1` [Example 10, 1-Methyl-N-(methylsulfonyl)-3-(p-tolyl)-1H-indole-6-carboxamide], the IC50 was more than 30000 nM at NaV1.5, 1030 nM at hNaV1.7 and 739 nM on NaV1.7.
With `CC(C)COc1ncc(-c2cn(C)c3cc(C(=O)NS(C)(=O)=O)ccc23)cc1Cl` [Example 2, 3-(5-Chloro-6-isobutoxypyridin-3-yl)-1-methyl-N-(methylsulfonyl)-1H-indole-6-carboxamide], the IC50 at NaV1.5 amounted to 18300 nM; at hNaV1.7 it was 91 nM; at NaV1.7, 90 nM.
Consider `CC(C)COc1ccc(-c2cn(C)c3cc(C(=O)NS(C)(=O)=O)c(F)cc23)cn1` [Example 44, 5-Fluoro-3-(6-isobutoxypyridin-3-yl)-1-methyl-N-(methylsulfonyl)-1H-indole-6-carboxamide], for which the IC50 at NaV1.5 is 18700 nM; at hNaV1.7 it was 86 nM; at NaV1.7, 104 nM.
`Cn1cc(-c2cccc(F)c2F)c2ccc(C(=O)NS(C)(=O)=O)cc21` [Example 3, 3-(2,3-Difluorophenyl)-1-methyl-N-(methylsulfonyl)-1H-indole-6-carboxamide]: the IC50 is more than 30000 nM at NaV1.5, 4940 nM at hNaV1.7 and 2860 nM at NaV1.7.
For `Cn1cc(-c2ccc(C(F)F)cc2)c2ccc(C(=O)NS(C)(=O)=O)cc21` [Example 30, 3-(4-(Difluoromethyl)phenyl)-1-methyl-N-(methylsulfonyl)-1H-indole-6-carboxamide], the figures for the IC50 on NaV1.5, at hNaV1.7 and on NaV1.7 were more than 30000 nM, 1010 nM and 262 nM, respectively.
Consider `Cn1cc(-c2ccccc2)c2ccc(C(=O)NS(C)(=O)=O)cc21` [Example 5, 1-Methyl-N-(methylsulfonyl)-3-phenyl-1H-indole-6-carboxamide], for which the IC50 on NaV1.5 is more than 30000 nM; on hNaV1.7, 7270 nM; on NaV1.7 it was 743 nM.
For `Cn1cc(-c2ccc(C(F)F)cc2)c2ccc(C(=O)NS(=O)(=O)C3CC3)cc21` [Example 31, N-(cyclopropylsulfonyl)-3-(4-(difluoromethyl)phenyl)-1-methyl-1H-indole-6-carboxamide] the same measures were more than 30000 nM, 321 nM and 69 nM.
For the compound `Cc1cccc(-c2cn(C)c3cc(C(=O)NS(C)(=O)=O)ccc23)c1` [Example 15, 1-Methyl-N-(methylsulfonyl)-3-(m-tolyl)-1H-indole-6-carboxamide], the IC50 on NaV1.5 was more than 30000 nM; at hNaV1.7, 943 nM; on NaV1.7, 375 nM.
For `Cn1cc(-c2ccc(C(F)F)cc2)c2cc(F)c(C(=O)NS(C)(=O)=O)cc21` [Example 48, 3-(4-(Difluoromethyl)phenyl)-5-fluoro-1-methyl-N-(methylsulfonyl)-1H-indole-6-carboxamide], the IC50 at NaV1.5 was more than 30000 nM; at hNaV1.7, 956 nM; at NaV1.7, 91 nM.
As for `CC(C)COc1ccc(-c2cn(C)c3cc(C(=O)NS(C)(=O)=O)ccc23)cn1` [Example 23, 3-(6-Isobutoxypyridin-3-yl)-1-methyl-N-(methylsulfonyl)-1H-indole-6-carboxamide], the values for the IC50 on NaV1.5, at hNaV1.7 and on NaV1.7 were more than 30000 nM, 468 nM and 183 nM, respectively.
Turning to `CC(C)COc1ncc(-c2cn(C)c3cc(C(=O)NS(=O)(=O)C(C)C)ccc23)cc1Cl` [Example 37, 3-(5-Chloro-6-isobutoxypyridin-3-yl)-N-(isopropylsulfonyl)-1-methyl-1H-indole-6-carboxamide], the IC50 on NaV1.5 came out at 14000 nM; at hNaV1.7, 207 nM; at NaV1.7, 458 nM.
For `Cn1cc(-c2ccc(C(F)(F)F)cc2Cl)c2ccc(C(=O)NS(C)(=O)=O)cc21` [Example 11, 3-(2-Chloro-4-(trifluoromethyl)phenyl)-1-methyl-N-(methylsulfonyl)-1H-indole-6-carboxamide], the IC50 on NaV1.5 amounted to 8640 nM; on hNaV1.7, 750 nM; on NaV1.7, 604 nM.
